Experimental data reported in patent US7338958B2, “Sulfoximine-substituted pyrimidines as CDK-and/or VEGF inhibitors, their production and use as pharmaceutical agents” (Schering AG, priority 2003, dated 2008).

Tests used:
[1] = system: MCF7, hormone-independent human breast cancer cells; assay: Proliferation assay, MCF7; format: cell-based; settings: MCF7, 96 h, 4 days incubation, crystal violet
From the text: (§1) Cultivated human tumor cells (MCF7, hormone-independent human breast cancer cells, related to ATCC HTB22; NCI-H460, human non-small-cell lung cancer cells, ATCC HTB-177, HCT 116, human colon cancer cells, ATCC CCL-247; DU 145, hormone-independent human prostate cancer cells, ATCC HTB-81; MaTu-MDR, hormone-independent, multiple pharmaceutical agent-resistant human breast cancer cells, EPO-GmbH, Berlin) were flattened out at a density of about 5000 cells/measuring point, depending on the growth rate of the respective cells, in a 96-well multititer plate in 200 μl of the corresponding growth medium. After 24 hours, the cells of one plate (zero-point plate) were colored with crystal violet (see below), while the medium of the other plates was replaced by fresh culture medium (200 μl), to which the test substances were added in various concentrations (0 μm, as well as in the range of 0.01-30 μm; the final concentration of the solvent dimethyl sulfoxide was 0.5%). The cells were incubated for 4 days in the presence of test substances. The cell proliferation was determined by coloring the cells with crystal violet: the cells were fixed by adding 20 μl/measuring point of an 11% glutaric aldehyde solution for 15 minutes at room temperature. After three washing cycles of the fixed cells with water, the plates were dried at room temperature. The cells were colored by adding 100 μl/measuring point of a 0.1% crystal violet solution (the pH was set at 3 by adding acetic acid). After three washing cycles of the colored cells with water, the plates were dried at room temperature. The dye was dissolved by adding 100 μl/measuring point of a 10% acetic acid solution. The extinction was determined by photometry at a wavelength of 595 nm. The change of cell growth, in percent, was calculated by normalization of the measured values to the extinction values of the zero-point plate (=0%) and the extinction of the untreated (0 μm) cells (=100%).

CDK2/CycE = biological target: T1, CDK2/CycE (Homo sapiens, UniProt P24941); assay: CDK2/CycE Kinase Assay; format: biochemical; settings: histone IIIS substrate, 33P-ATP, 15 minutes at 22° C.
T1 construct: GST; purchased ProQinase GmbH, Freiburg; host or cells: baculovirus-infected insect cells (Sf9)
Procedure: Recombinant CDK2- and CycE-GST-fusion proteins, purified from baculovirus-infected insect cells (Sf9), were purchased by ProQinase GmbH, Freiburg. Histone IIIs, which was used as a kinase substrate, was purchased by the Sigma Company.
CDK2/CycE (50 ng/measuring point) was incubated for 15 minutes at 22° C. in the presence of various concentrations of test substances (0 μm, as well as within the range of 0.01-100 μm) in assay buffer [50 mmol of tris/HCl, pH 8.0, 10 mmol of MgCl2, 0.1 mmol of Na ortho-vanadate, 1.0 mmol of dithiothreitol, 0.5 μm of adenosine triphosphate (ATP), 10 μg/measuring point of histone IIIS, 0.2 μCi/measuring point of ^33P-gamma ATP, 0.05% NP40, 12.5% dimethyl sulfoxide]. The reaction was stopped by adding EDTA solution (250 mmol, pH 8.0, 14 μl/measuring point).
(§2) From each reaction batch, 10 μl was applied to P30 filter strips (Wallac Company), and non-incorporated ^33P-ATP was removed by subjecting the filter strips to three washing cycles for 10 minutes each in 0.5% phosphoric acid. After the filter strips were dried for one hour at 70° C., the filter strips were covered with scintillator strips (MeltiLex™ A, Wallac Company) and baked for one hour at 90° C. The amount of incorporated ^33P (substrate phosphorylation) was determined by scintillation measurement in a gamma-radiation measuring device (Wallac).

[2] = biological target: T2, VEGF receptor tyrosine kinase-2 (Homo sapiens, UniProt P35968); assay: VEGF Receptor-2 Kinase Assay; format: biochemical; settings: poly-(Glu4Tyr) substrate, 33P-ATP, 10 minutes at 22° C.; read-out: VEGF-R2 IC50
T2 construct: GST; made in house; host or cells: baculovirus-infected insect cells (Sf9)
T2 sequence (P35968 20-1356): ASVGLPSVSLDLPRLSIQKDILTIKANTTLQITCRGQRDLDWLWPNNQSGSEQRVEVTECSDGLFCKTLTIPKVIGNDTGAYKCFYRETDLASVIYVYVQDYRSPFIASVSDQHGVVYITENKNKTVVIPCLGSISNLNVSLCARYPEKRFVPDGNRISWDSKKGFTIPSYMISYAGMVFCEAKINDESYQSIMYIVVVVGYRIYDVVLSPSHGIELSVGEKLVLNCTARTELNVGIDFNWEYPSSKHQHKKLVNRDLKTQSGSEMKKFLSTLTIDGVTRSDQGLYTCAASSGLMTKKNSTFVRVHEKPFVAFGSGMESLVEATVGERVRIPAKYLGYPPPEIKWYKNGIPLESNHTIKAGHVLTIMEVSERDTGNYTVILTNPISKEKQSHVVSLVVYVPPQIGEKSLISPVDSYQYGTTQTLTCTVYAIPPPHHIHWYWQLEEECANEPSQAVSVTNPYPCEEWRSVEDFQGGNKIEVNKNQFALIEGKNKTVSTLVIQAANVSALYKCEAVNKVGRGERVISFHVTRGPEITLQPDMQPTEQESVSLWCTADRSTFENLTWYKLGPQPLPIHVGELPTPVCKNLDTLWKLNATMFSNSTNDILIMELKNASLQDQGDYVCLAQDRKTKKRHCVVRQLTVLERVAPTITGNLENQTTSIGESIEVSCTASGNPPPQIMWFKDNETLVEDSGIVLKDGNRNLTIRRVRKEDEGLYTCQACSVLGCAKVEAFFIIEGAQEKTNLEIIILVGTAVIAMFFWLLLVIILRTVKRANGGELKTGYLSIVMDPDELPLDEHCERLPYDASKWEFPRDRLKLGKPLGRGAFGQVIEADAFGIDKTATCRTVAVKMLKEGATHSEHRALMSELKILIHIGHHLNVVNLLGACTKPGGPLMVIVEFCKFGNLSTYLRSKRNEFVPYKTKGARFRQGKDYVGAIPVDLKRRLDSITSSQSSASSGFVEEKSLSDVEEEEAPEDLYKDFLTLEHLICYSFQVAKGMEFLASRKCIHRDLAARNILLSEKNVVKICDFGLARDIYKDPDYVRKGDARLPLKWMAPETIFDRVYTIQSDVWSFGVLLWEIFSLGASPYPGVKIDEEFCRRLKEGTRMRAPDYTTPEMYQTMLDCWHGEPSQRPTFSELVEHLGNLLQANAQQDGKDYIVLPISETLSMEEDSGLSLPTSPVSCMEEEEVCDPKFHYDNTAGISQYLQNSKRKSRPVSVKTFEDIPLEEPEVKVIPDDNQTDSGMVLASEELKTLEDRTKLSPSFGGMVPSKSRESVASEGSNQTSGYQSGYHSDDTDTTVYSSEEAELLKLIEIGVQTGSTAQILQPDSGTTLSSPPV
Procedure: VEGF Receptor-2 Kinase Assay
Recombinant VEGF receptor tyrosine kinase-2 was purified as a GST fusion protein from baculovirus-infected insect cells (Sf9). Poly-(Glu4Tyr), which was used as a kinase substrate, was purchased by the Sigma Company.
VEGF receptor tyrosine kinase (90 ng/measuring point) was incubated for 10 minutes at 22° C. in the presence of various concentrations of test substances (0 μm, as well as within the range of 0.001-30 μm) in 30 μl of assay buffer [40 mmol of Tris/HCl, […], 10 mmol of MgCl2, 1 mmol of MnCl2, 3 μmol of Na ortho-vanadate, 1.0 mmol of dithiothreitol, 8 μmol of adenosine trisphosphate (ATP), 27 μg/measuring point of poly-(Glu4Tyr), 0.2 μCi/measuring point of 33P-gamma ATP, 1% dimethyl sulfoxide]. The reaction was stopped by adding EDTA solution (250 mmol, pH 7.0, 10 μl/measuring point).
as §2, with “33P-ATP” for “^33P-ATP”, “33P” for “^33P”

CDK1/CycB = biological target: T3, CDK1/CycB (Homo sapiens, UniProt P06493); assay: CDK1/CycB Kinase Assay; format: biochemical; settings: histone IIIS substrate, 33P-ATP, 15 minutes at 22° C.
T3 construct: GST; purchased ProQinase GmbH, Freiburg; host or cells: baculovirus-infected insect cells (Sf9)
T3 sequence (P06493 whole entry): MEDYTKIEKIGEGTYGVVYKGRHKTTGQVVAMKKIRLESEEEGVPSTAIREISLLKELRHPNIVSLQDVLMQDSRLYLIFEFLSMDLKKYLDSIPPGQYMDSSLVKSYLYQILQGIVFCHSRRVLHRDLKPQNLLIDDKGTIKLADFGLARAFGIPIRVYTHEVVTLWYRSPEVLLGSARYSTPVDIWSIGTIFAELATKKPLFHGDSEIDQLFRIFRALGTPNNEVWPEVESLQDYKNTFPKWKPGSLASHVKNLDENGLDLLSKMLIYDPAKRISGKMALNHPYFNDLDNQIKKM
T3 sequence (P14635 whole entry partner): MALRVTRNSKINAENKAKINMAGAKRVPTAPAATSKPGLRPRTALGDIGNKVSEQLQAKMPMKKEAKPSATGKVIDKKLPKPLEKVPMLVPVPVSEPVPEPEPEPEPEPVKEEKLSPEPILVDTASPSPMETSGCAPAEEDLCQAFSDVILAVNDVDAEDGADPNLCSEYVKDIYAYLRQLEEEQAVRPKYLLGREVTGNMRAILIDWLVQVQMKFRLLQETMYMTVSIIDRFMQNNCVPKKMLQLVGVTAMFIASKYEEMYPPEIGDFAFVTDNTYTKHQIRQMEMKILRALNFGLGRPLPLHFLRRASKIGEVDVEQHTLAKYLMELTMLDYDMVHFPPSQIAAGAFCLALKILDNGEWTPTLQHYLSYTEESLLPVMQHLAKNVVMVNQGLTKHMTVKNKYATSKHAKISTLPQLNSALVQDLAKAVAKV
Procedure: Recombinant CDK1- and CycB-GST-fusion proteins, purified from baculovirus-infected insect cells (Sf9), were purchased from ProQinase GmbH, Freiburg. Histone IIIS, used as a kinase substrate, is available commercially from the Sigma Company.
The reaction was stopped by adding EDTA solution (250 mmol, pH 8.0, 14 μl/measuring point).
as §2, with “33P-ATP” for “^33P-ATP”, “33P” for “^33P”

[3] = system: DU 145, hormone-independent human prostate cancer cells; assay: Proliferation assay, DU145; format: cell-based; settings: DU-145, 96 h, 4 days incubation, crystal violet
From the text: as §1

Row | IC50 [1] [µM] | IC50 [2] [µM] | IC50 (CDK1/CycB) [µM] | Structure (SMILES) | further results
1 | < 0.1 |  |  | C[C@@H](O)[C@@H](C)Nc1nc(Nc2ccc(S(C)(=N)=O)cc2)ncc1Br (mixture of isomers) [Example 1.43, (RS)-S-[4-({5-bromo-4-[(1R,2R)-(2-hydroxy-1-methylpropyl)amino]pyrimidin-2-yl}amino)phenyl]-S-methyl sulfoximide] | 
2 |  | 0.47 |  | CCS(=N)(=O)c1ccc(Nc2ncc(Br)c(N[C@H](COC)[C@@H](C)O)n2)cc1 (mixture of isomers) [Example 1.49, (RS)-S-{4-[(5-bromo-4-{[(1R,2R)-2-hydroxy-1-(methoxymethyl)-propyl]amino}pyrimidin-2-yl)amino]phenyl}-S-ethyl sulfoximide] | 
3 |  |  | 0.027 | COC[C@@H](Nc1nc(Nc2ccc(S(C)(=N)=O)cc2)ncc1Br)[C@@H](C)O (mixture of isomers) [Example 1.47, (RS)-S-{4-[(5-bromo-4-{[(1R,2R)-2-hydroxy-1-(methoxymethyl)-propyl]amino}pyrimidin-2-yl)amino]phenyl}-S-methyl sulfoximide] | 
4 |  |  | 0.011 | CCS(=N)(=O)c1ccc(Nc2ncc(Br)c(N[C@H](C)[C@@H](C)O)n2)cc1 (mixture of isomers) [Example 1.53, (RS)-S-[4-({5-bromo-4-[(1R,2R)-(2-hydroxy-1-methylpropyl)amino]pyrimidin-2-yl}amino)phenyl]-S-ethyl sulfoximide] | 
5 |  | 0.23 |  | CCS(=N)(=O)c1ccc(Nc2ncc(Br)c(N[C@H](COC)[C@@H](C)O)n2)cc1 (mixture of isomers) [Example 1.50, (RS)-S-{4-[(5-bromo-4-{[(1R,2R)-2-hydroxy-1-(methoxymethyl)-propyl]amino}pyrimidin-2-yl)amino]phenyl}-S-ethyl sulfoximide] | 
6 |  |  | 0.011 | COC[C@@H](Nc1nc(Nc2ccc(S(C)(=N)=O)cc2)ncc1Br)[C@@H](C)O (mixture of isomers) [Example 1.46, (RS)-S-{4-[(5-bromo-4-{[(1R,2R)-2-hydroxy-1-(methoxymethyl)-propyl]amino}pyrimidin-2-yl)amino]phenyl}-S-methyl sulfoximide] | IC50 (CDK2/CycE): 0.004 µM

Continued, molecule first:

Row | Structure (SMILES) | IC50 [1] [µM] | IC50 [2] [µM] | IC50 (CDK1/CycB) [µM] | further results
7 | C[C@H](CO)Nc1nc(Nc2ccc(S(C)(=O)=NS(=O)(=O)CC[Si](C)(C)C)cc2)ncc1Br (mixture of isomers) [Example 2.1, (RS)-S-[4-({5-bromo-4-[(R)-(2-hydroxy-1-methylethyl)amino]pyrimidin-2-yl}amino)phenyl]-S-methyl-N-[2-(trimethylsilyl)ethylsulfonyl]sulfoximide] | 0.9 | 0.074 |  | IC50 (CDK2/CycE): 0.39 µM
8 | COc1cc(Nc2ncc(Br)c(N[C@H](C)[C@@H](C)O)n2)ccc1S(C)(=N)=O (single isomer, unassigned) [Example 1.25] | < 0.1 |  |  | 
9 | Cc1cc(Nc2ncc(Br)c(N[C@H](C)C(C)(C)O)n2)ccc1S(C)(=N)=O (mixture of isomers) [Example 1.58, (RS)-S-[4-({5-bromo-4-[(R)-(2-hydroxy-1,2-dimethylpropyl)amino]pyrimidin-2-yl}amino)-2-methylphenyl]-S-methyl sulfoximide] |  | 0.045 |  | 
10 | Cc1cc(Nc2ncc(Br)c(N[C@H](C)C(C)(C)O)n2)ccc1S(C)(=N)=O (mixture of isomers) [Example 1.57, (RS)-S-[4-({5-bromo-4-[(R)-(2-hydroxy-1,2-dimethylpropyl)amino]pyrimidin-2-yl}amino)-2-methylphenyl]-S-methyl sulfoximide] | < 0.1 | 0.066 |  | 
11 | Cc1cc(Nc2ncc(Br)c(N[C@H](C)C(C)(C)O)n2)ccc1S(C)(=N)=O (mixture of isomers) [Example 1.59, (RS)-S-[4-({5-bromo-4-[(R)-(2-hydroxy-1,2-dimethylpropyl)amino]pyrimidin-2-yl}amino)-2-methylphenyl]-S-methyl sulfoximide] |  | 0.048 |  | 
12 | CCOC(=O)N=S(=O)(CC)c1ccc(Nc2ncc(Br)c(N[C@H](COC)[C@@H](C)O)n2)cc1 (mixture of isomers) [Example 1.33, (RS)-S-{4-[(5-bromo-4-{[(1R,2R)-2-hydroxy-1-(methoxymethyl)propyl]amino}pyrimidin-2-yl)amino]phenyl}-N-(ethoxycarbonyl)-S-ethyl sulfoximide] | 1 | 0.45 | 0.2 | 
13 | CC(C)(O)CSc1nc(Nc2ccc(S(C)(=N)=O)cc2)ncc1Br (racemic) [Example 3.9, (RS)-S-[4-({5-bromo-4-[(2-hydroxy-2-methyl-propyl)sulfanyl]pyrimidin-2-yl}amino)phenyl]-S-methyl sulfoximide] | 1 |  | 0.055 | IC50 (CDK2/CycE): 0.008 µM
14 | COc1cc(Nc2ncc(Br)c(N[C@H](C)[C@@H](C)O)n2)ccc1S(C)(=N)=O (single isomer, unassigned) [Example 1.26] |  |  |  | IC50 [3]: 0.07 µM
15 | C[C@@H](O)[C@@H](C)Oc1nc(Nc2ccc(S(=N)(=O)CCO)cc2)ncc1Br (mixture of isomers) [Example 1.21, (RS)-S-[4-({5-bromo-4-[(1R,2R)-2-hydroxy-1-methyl-propoxy]pyrimidin-2-yl}amino)phenyl]-S-(2-hydroxyethyl)sulfoximide] | < 0.1 |  | 0.005 | 
16 | CN=S(C)(=O)c1ccc(Nc2ncc(Br)c(N[C@H](C)[C@@H](C)O)n2)cc1 (mixture of isomers) [Example 1.30, (RS)-S-[4-({5-bromo-4-[(1R,2R)-(2-hydroxy-1-methylpropyl)amino]pyrimidin-2-yl}amino)phenyl]-N,S-dimethyl-sulfoximide] |  |  | 0.015 | IC50 (CDK2/CycE): 0.006 µM
17 | CC(O)CSc1nc(Nc2ccc(S(C)(=N)=O)cc2)ncc1Br (racemic) [Example 3.4, (RS)-S-[4-({5-bromo-4-[(RS)-(2-hydroxy-propyl)sulfanyl]pyrimidin-2-yl}amino)phenyl]-S-methyl sulfoximide] | 1 |  | 0.072 | 
18 | CN=S(C)(=O)c1ccc(Nc2ncc(Br)c(N[C@H](C)[C@@H](C)O)n2)cc1 (mixture of isomers) [Example 1.29, (RS)-S-[4-({5-bromo-4-[(1R,2R)-(2-hydroxy-1-methylpropyl)amino]pyrimidin-2-yl}amino)phenyl]-N,S-dimethyl-sulfoximide] |  |  | 0.007 | IC50 (CDK2/CycE): 0.004 µM
